Reference: US9802973B2, “Crystalline forms of ferric maltol” (SHIELD TX (UK) LTD., priority 2014, dated 2017)

Legend:
[1] = Competitive slurries of polymorphs (XRPD of product); assay type: physicochemical
Protocol: Form IV (10 mg) was placed in water (1 ml) with 10 mg of Form I and Form II and stirred overnight at ambient temperature. A second slurry was set up to also include a further polymorph. Mixtures were filtered under suction and dried in a vacuum oven (45° C.).
The same experimental procedure was applied to a slurry involving Forms I, II, III and IV. The initial test was performed in water and a second was carried out in ethyl acetate. […] This work supports previous conclusions that Form II is the dominant form.

[2] = Solubility in pure water of the polymorphs; details: 23° C.
Protocol: The solubility in pure water of samples of the different polymorphs was assessed at 23° C.

Cc1occc(=O)c1[O-].Cc1occc(=O)c1[O-].Cc1occc(=O)c1[O-].[Fe+3] [Form II, ferric maltol]
Form obtained from competitive slurry (XRPD) ([1]; Form IV with Form I and Form II, water, stirred overnight at ambient temperature): generated
Relative stability of forms concluded from competitive slurries ([1]; conclusion from competitive slurries): dominant form
Form obtained from competitive slurry (XRPD) ([1]; slurry of Forms I, II, III and IV, in water and in ethyl acetate): isolated
Solubility [2]: 5900 µg/mL
